# Laboratory results reported in ChEMBL document CHEMBL6096705, “Identification of a Chemical Probe for BLT2 Activation by Scaffold Hopping” (J Med Chem, 2025).
# Columns and labels:
# [1] = biological target: T1, Leukotriene B4 receptor 2 (Homo sapiens, UniProt Q9NPC1); assay: Agonist activity at human BLT2 expressed in CHO-K1 cells overexpressing GNAi2 assessed as inhibition of forskolin-induced cAMP accumulation preincubated for 40 mins followed by forskolin addition and measured after 20 mins by HTRF assay; type: functional, cell-based
# T1 sequence (Q9NPC1 whole entry): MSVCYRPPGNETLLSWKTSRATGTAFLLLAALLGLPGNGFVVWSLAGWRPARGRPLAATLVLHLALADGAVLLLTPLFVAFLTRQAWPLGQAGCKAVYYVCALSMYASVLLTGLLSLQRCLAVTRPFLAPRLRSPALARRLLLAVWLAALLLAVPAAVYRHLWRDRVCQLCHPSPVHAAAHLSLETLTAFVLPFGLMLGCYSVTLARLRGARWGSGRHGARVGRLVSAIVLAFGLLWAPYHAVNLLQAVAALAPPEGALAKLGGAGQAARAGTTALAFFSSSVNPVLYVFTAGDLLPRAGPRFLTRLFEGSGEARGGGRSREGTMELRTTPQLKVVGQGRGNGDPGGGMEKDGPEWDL
# [2] = biological target: T1, Leukotriene B4 receptor 2; assay: Agonist activity at BLT2 (unknown origin); type: functional
# HepG2 = assay: Cytotoxicity against human HepG2 cells assessed as effect on cell viability at 100 uM measured after 72 hrs by CellTiter-Glo assay; type: toxicity, cell-based; conditions: hepg2, 72 h
# [3] = biological target: T1, Leukotriene B4 receptor 2; assay: Displacement of FITC-labeled tracer from Lumi4 Tb-labeled BLT2 (unknown origin) expressed in CHO-K1 cells incubated for 1 hrs by Tag-lite displacement based HTRF assay; type: cell-based
# [4] = Aqueous solubility of compound in PBS buffer at pH 7.4 by precipitation based plate reader analysis; type: physicochemical
# [5] = Metabolic stability in Sprague-Dawley rat liver microsomes assessed as parent compound remaining measured upto 60 mins in presence of NADPH by HPLC analysis; type: ADME, Microsome; conditions: read-out: Stability
# [6] = biological target: T2, Type-1 angiotensin II receptor (Homo sapiens, UniProt P30556)
# T2 sequence (P30556 whole entry): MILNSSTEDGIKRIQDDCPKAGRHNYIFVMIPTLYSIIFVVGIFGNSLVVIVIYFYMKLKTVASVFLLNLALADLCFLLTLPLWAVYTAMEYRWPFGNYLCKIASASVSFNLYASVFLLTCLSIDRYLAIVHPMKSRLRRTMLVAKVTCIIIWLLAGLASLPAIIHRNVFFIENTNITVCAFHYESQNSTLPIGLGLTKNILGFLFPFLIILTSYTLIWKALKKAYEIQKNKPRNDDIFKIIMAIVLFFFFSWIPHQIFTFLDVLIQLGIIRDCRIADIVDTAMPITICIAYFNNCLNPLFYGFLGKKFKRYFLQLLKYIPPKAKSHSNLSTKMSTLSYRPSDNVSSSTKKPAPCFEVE
# Description: Antagonist activity at human AT1 receptor expressed in CHO-K1 cells co-expressing GNA14 assessed as inhibition of Val5-Angiotensin-II induced IP-1 accumulation incubated for 90 mins by HTRF assay
# [7] = Toxicity in male C57BL/6J mouse assessed as effect on normal behavior at 3 mg/kg, iv; type: organism-based; conditions: in vivo
# [8] = AUC (0 to infinity) in male C57BL/6J mouse at 10 mg/kg, po by LC-MS analysis; type: ADME, organism-based; conditions: in vivo
# [9] = Oral bioavailability in male C57BL/6J mouse at 10 mg/kg by LC-MS analysis; type: ADME, organism-based; conditions: in vivo
# [10] = AUC (0 to infinity) in male C57BL/6J mouse at 3 mg/kg, iv by LC-MS analysis; type: ADME, organism-based; conditions: in vivo
# [11] = Tmax in male C57BL/6J mouse at 10 mg/kg, po by LC-MS analysis; type: ADME, organism-based; conditions: in vivo
# HEK-293T = assay: Cytotoxicity against HEK293T cells assessed as effect on cell viability at 10 uM measured after 24 hrs by CellTiter-Glo assay; type: toxicity, cell-based; conditions: human
# [12] = Half-life in male C57BL/6J mouse at 10 mg/kg, po by LC-MS analysis; type: ADME, organism-based; conditions: in vivo
# [13] = Toxicity in male C57BL/6J mouse assessed as effect on normal behavior at 10 mg/kg, SC; type: organism-based; conditions: in vivo
# U2OS = assay: Cytotoxicity against human U2OS cells assessed as effect on cell viability at 10 uM measured after 24 hrs by CellTiter-Glo assay; type: toxicity, cell-based
# [14] = Cmax in male C57BL/6J mouse at 10 mg/kg, po by LC-MS analysis; type: ADME, organism-based; conditions: in vivo
# [15] = Toxicity in male C57BL/6J mouse assessed as effect on normal behavior at 10 mg/kg, po; type: organism-based; conditions: in vivo
# [16] = Cytotoxicity against human MRC9 cells assessed as effect on cell viability at 10 uM measured after 24 hrs by CellTiter-Glo assay; type: toxicity, cell-based; conditions: mrc9, 24 h
# [17] = AUC (0 to infinity) in male C57BL/6J mouse at 10 mg/kg, SC by LC-MS analysis; type: ADME, organism-based; conditions: in vivo
# [18] = Cmax in male C57BL/6J mouse at 3 mg/kg, iv by LC-MS analysis; type: ADME, organism-based; conditions: in vivo
# [19] = Half-life in male C57BL/6J mouse at 3 mg/kg, iv by LC-MS analysis; type: ADME, organism-based; conditions: in vivo
# [20] = Half-life in male C57BL/6J mouse at 10 mg/kg, SC by LC-MS analysis; type: ADME, organism-based; conditions: in vivo
# [21] = biological target: T1, Leukotriene B4 receptor 2; assay: Agonist activity at human BLT2 expressed in CHO-K1 cells overexpressing GNA14 assessed as induction of IP-1 accumulation incubated for 90 mins by HTRF assay; type: functional, cell-based
# [22] = Binding affinity to BLT1 (unknown origin); design: species or system Homo sapiens
smiles,measurement,setting,value
CCCCC[C@H](O)/C=C/C=C/C/C=C\CCCC(=O)O,EC50,[1],0.0014 µM
same,pEC50,[2],7.72
CCCCC(=O)N(Cc1ccc(-c2ccccc2C(=O)O)cc1)c1ccccc1,Activity,HepG2,Non-toxic
same,IC50,[3],0.063 µM
same,solubility kinetic,[4],250 µM
same,remaining at 1 h,[5],66%
same,IC50,[6],53 µM
CCCCC(=O)N1CC2(C1)CN(c1ccccc1-c1nnn[nH]1)C2,Activity,HepG2,Non-toxic
same,Activity,[7],Non-toxic
same,AUC(0-inf),[8],1730 ng·h/mL
same,bioavailability,[9],51%
same,AUC(0-inf),[10],1020 ng·h/mL
same,Tmax,[11],15 min
same,Activity,HEK-293T,Non-toxic
same,half-life,[12],154 min
same,solubility kinetic,[4],≥ 1000 µM
same,Activity,[13],Non-toxic
same,Activity,U2OS,Non-toxic
same,remaining at 1 h,[5],97.5%
same,Cmax,[14],1990 ng/mL
same,Activity,[15],Non-toxic
same,Activity,[16],Non-toxic
same,AUC(0-inf),[17],4080 ng·h/mL
same,Cmax,[18],3290 ng/mL
same,half-life,[19],19 min
same,half-life,[20],62 min
CCCCC(=O)N1Cc2cc(-c3ccccc3-c3nnn[nH]3)ccc2C1C (stereo unspecified),EC50,[21],1.39 µM
CCCCC1(C)C(=O)N(Cc2ccc(-c3ccccc3C(=O)O)cc2)c2ccccc21 (stereo unspecified),IC50,[6],58 µM
CCc1nnc(N2Cc3ccc(-c4ccccc4-c4nnn[nH]4)cc3C2)o1,solubility kinetic,[4],750 µM
same,remaining at 1 h,[5],101%
same,IC50,[6],15.8 µM
CCCCC(=O)N1Cc2ccc(-c3ccccc3-c3nnn[nH]3)cc2C1,IC50,[6],> 400 µM
CCc1cnc(N2Cc3ccc(-c4ccccc4-c4nnn[nH]4)cc3C2)s1,solubility kinetic,[4],250 µM
same,remaining at 1 h,[5],89%
same,IC50,[6],79 µM
CCCCC(=O)N1CCC2(CC1)CCN(c1ccccc1-c1nnn[nH]1)C2,solubility kinetic,[4],≥ 1000 µM
same,remaining at 1 h,[5],99.8%
same,IC50,[6],13.6 µM
CCCCC(=O)N1CCc2ccc(-c3ccccc3C(=O)O)cc2C1,EC50,[21],18.4 µM
CCCCC1=NC2(CCCC2)C(=O)N1Cc1ccc(-c2ccccc2-c2nnn[nH]2)cc1 [IRBESARTAN],IC50,[3],≥ 1.5 µM
CCCCC/C=C\C[C@@H](O)/C=C/C=C/C=C\[C@@H](O)CCCC(=O)O [LEUKOTRIENE_B4],pKd,[22],8.5
